What was measured:
MCF-7 cells = experiment: Intracellular Zn^2+ by FluoZin-3 staining and flow cytometry; type: cell-based, human
Procedure: Measurement of intracellular Zn^2+ by FluoZin-3 staining: Cells were seeded in 6-well plates at a density such that at the time of analysis, wells would be 70-80% confluent. Following the completion of treatment, the drug-containing media was removed and replaced with Hank's Balanced Salt Solution (HBSS, Life Technologies) containing 2.5 μM FluoZin-3. The cells were incubated with the indicator for 30 minutes at room temperature in the dark. After staining, the cells were trypsinized, resuspended in HBSS containing 2% FBS, and relative mean fluorescence was measured by flow cytometry (FACscan, BD Biosciences, San Jose, Calif., USA).
In order to determine whether the transcriptional changes in metal trafficking genes were functionally relevant to ZNA's mechanism of action, intracellular Zn^2+ was quantified using the fluorescent indicator FluoZin-3 followed by flow cytometry analysis (FIG. 1G).
Further probing the ability of ZNA to stimulate increases in intracellular Zn^2+, MCF-10A and MCF-7 cells were treated for three hours with 30 μM ZNA (both with and without exogenous ZnSO4) in zinc-free media; intracellular zinc was then quantified by FluoZin-3 staining (FIG. 3B).

LC3 in MCF-10A cells = experiment: Western blot of autophagosome-associated protein LC3A/B; type: cell-based, human
Procedure: Western blot analysis: For analysis of protein expression by Western blot analysis, the procedure set forth in Gligorich et al. was used. Gligorich K, Vaden R, Shelton D, Wang G, Matsen C, Looper R, et al. Development of a screen to identify selective small molecules active against patient-derived metastatic and chemoresistant breast cancer cells. Breast Cancer Res 2013; 15(4):R58. The cells were cultured and treated in 10-cm plates. Cells were harvested in cold radioimmunoprecipitation assay (RIPA) buffer (50 mM Tris-HCl, 150 mM NaCl, 0.1% sodium dodecyl sulfate (SDS), 0.5% sodium deoxycholate, and 1% Triton X-100) supplemented with protease and phosphatase inhibitors (Sigma). Protein concentration was measured using a BCA assay (Thermo Scientific) and […] of protein was resolved by gel electrophoresis using an SDS polyacrylamide gel. Protein was transferred to an Immobilon-FL PVDF membrane (Millipore, Billerica, Mass., USA) and the membrane was blocked for 1 hour at room temperature with Odyssey blocking buffer (Li—COR). […]
Further cell death characterization studies were also conducted to establish the role of autophagy in ZNA-mediated cell death. To assess the level of autophagic induction following treatment with ZNA, levels of the autophagosome-associated protein LC3A/B were measured by western blot analysis. […]

[1] = system: MCF-10A normal mammary epithelial cell line; experiment: Dose response, luciferase-based ATP (ATPlite) viability assay; type: cell-based, human; settings: five days of treatment
MCF-7s = experiment: Cell viability of MCF-7 cells treated with ZNA and ZNA analogues; type: cell-based, human; settings: Homo sapiens, MCF7S; 24 h treatment
Source text: Of the analogues evaluated, those with more electron-donating groups at C5 or on the N^2-carbonyl seem to improve activity.

[2] = system: MCF-10A normal mammary epithelial cell line; experiment: Cell viability (ATP quantification) with exogenously added transition metals
Procedure: Three breast cancer cell lines (MCF-7, T47D, and MDA-MB-231) and a normal mammary epithelial cell line (MCF-10A) were treated with 30 μM ZNA in conjunction with 30 M CuSO4, ZnSO4, Fe(III)Cl3, Fe(II)SO4, NiSO4, MnCl2, or CoCl2 for 48 hours; following the completion of treatment, cell viability was measured using an ATP quantification assay (FIG. 2A).

[3] = system: metal trafficking genes in MCF-7, T47D, MDA-MB-231 and MCF-10A cells; experiment: Real-time PCR of metal trafficking genes; type: cell-based, human; settings: 30 μM ZNA, 3 or 24 hours, four cell lines
Procedure: Real-Time PCR (RT-PCR): For experiments designed to measure gene expression, real-time PCR (RT-PCR) was conducted using a LightCycler 480 (Roche, Basel, Switzerland) and KAPA SYBR FAST qPCR Master Mix (Kapa Biosystems, Boston, Mass., USA). […] Genomic DNA was removed with a DNase digest and 1 μg of RNA was used to synthesize cDNA using a Superscript III Reverse Transcriptase kit from Invitrogen per the manufacturer's protocol; after an RNase H digestion, RT-PCR was performed in a 5 μL reaction using KAPA SYBR FAST qPCR Master Mix (Kapa Biosystems, Boston, Mass., USA). The following primer sets were used: MT1F 5′-[…] -3′ (SEQ ID NO:1) and 5′-[…] -3′ (SEQ ID NO:2); MT1X 5′-[…] -3′ (SEQ ID NO:3) and 5′-[…] -3′ (SEQ ID NO:4); MT2A 5′-[…] -3′ (SEQ ID NO:5) and 5′-[…] -3′ (SEQ ID NO:6); SLC30A2 5′-[…] -3′ (SEQ ID NO:7) and 5′-[…] -3′ (SEQ ID NO:8); SLC30A1 5′-[…] -3′ (SEQ ID NO:9) and 5′-[…] -3′ (SEQ ID NO:10). Data were normalized to an internal reference gene (GAPDH 5′-[…] -3′ (SEQ ID NO:11) and 5′-[…] -3′ (SEQ ID NO:12)) and relative gene expression was assessed using the comparative CT method set forth in Schmittgen T D, Livak K J. Analyzing real-time PCR data by the comparative CT method. Nat Protocols 2008; 3(6):1101-08. For tissue derived from mouse in vivo experiments, fresh tissue was homogenized using a TissueLyser II for 3 minutes at 30 Hz before isolating RNA. […]

MCF-10A cells = experiment: Cellular proliferation, EdU incorporation assay; type: cell-based, human; settings: ZNA/ZnSO4, 6 hours

Question: How did the “increase in FluoZin-3 fluorescence” value (MCF-7 cells; 30 μM ZNA alone, 48 hours) turn out when `COc1ccc(-c2c(Cc3ccccc3)[nH]/c(=N\C(=O)c3ccccc3F)n2C)cc1` [ZNA, (E)-N-(4-benzyl-5-(4-methoxyphenyl)-1-methyl-1H-imidazol-2(3H)-ylidene)-2-fluorobenzamide] was run?
Answer: 13 fold

Question: What about the FluoZin-3 fluorescence (MCF-7 cells; 30 μM ZNA alone, three hours, zinc-free media) of the same compound?
Answer: no significant increase in FluoZin-3 fluorescence

Question: And the “increase in fluorescence (FluoZin-3)” value (MCF-7 cells; ZNA and ZnSO4, three hours, zinc-free media, compared to ZnSO4 alone)?
Answer: 4.3 fold

Question: And the LC3 protein (LC3 in MCF-10A cells; 30 μM ZNA with 30 μM ZnSO4, 6 hours)?
Answer: significant increases were not observed

Question: And the LC3 level (LC3 in MCF-10A cells; ZNA alone, 48 and 72 hours)?
Answer: only in the cancer cell lines

Question: And the cell viability [1]?
Answer: largely unaffected

Question: What about the IC50 (MCF-7s) of the same compound?
Answer: 8.8 µM

Question: What about the cell viability ([2]; 30 μM ZNA with CuSO4, 48 hours) of the same compound?
Answer: significant reduction in cell viability

Question: And the cell viability ([2]; 30 μM ZNA with ZnSO4, 48 hours)?
Answer: only a partial reduction in cell number

Question: What about the “transcription of metal trafficking genes” value [3] of the same compound?
Answer: stimulated transcriptional increases

Question: What about the “proliferation (EdU)” value (MCF-10A cells) of the same compound?
Answer: somewhat affected

— patent US10493061B2, “Compositions and methods comprising 2-(acylamino)imidazoles” (priority 2014, dated 2019)
